{"source": "paper PMC10115881", "about": "“Disrupting the α-synuclein-ESCRT interaction with a peptide inhibitor mitigates neurodegeneration in preclinical models of Parkinson’s disease” (Nature Communications, 2023)", "key": {"[1]": {"test_system": "A53T a-syn or EV rats", "experiment": "AAV-A53T a-syn rat model, high titer, TH+ neurons", "type": "in vivo", "settings": "6 weeks", "from_the_text": "Third, we used a preclinical rat model of PD in which SN degeneration is induced by AAV vector-mediated expression of human mutant A53T a-syn[18],[45]–[48] (Fig. 5A). […] (Fig. 5B, C). […] Furthermore, overexpression of A53T a-syn was associated with a reduction in LAMP1 positive puncta in the SN which was restored with PDpep1.3 (Figs. 5E, S5E). […] Forelimb asymmetry in the cylinder test is a behavioral impairment associated with SN degeneration which models bradykinesia, the cardinal motor abnormality in PD[49].\nAdult female Sprague-Dawley rats (250–280 g; Envigo) were pair-housed in cages with wood bedding and had access to food and water ad libitum. […]\nImmunofluorescence staining for a-syn, pS129 a-syn, TH, and LAMP1 was performed by washing free-floating sections with PBS-T (0.1% Tween-20 or 0.2% Triton-X-100) three times for 10 min each at room temperature. […] Sections were then mounted onto glass slides and allowed to dry and then Dako fluorescence mounting medium (Agilent) was applied, followed by coverslips.\nConfocal images of immunofluorescent staining of midbrain sections were processed using HALO software (Indica Labs), which is a well validated tool for automatic quantification of neurons in brain tissue sections[70]–[72]. […] Levels of total a-syn were assessed in this ROI by measuring the area and intensity of anti-a-syn staining. […]"}, "[2]": {"test_system": "cathepsin B", "experiment": "Cathepsin B fluorescence in rat cortical neurons", "type": "cell-based", "settings": "A53T a-syn", "from_the_text": "Pregnant rats (E17) of the Sprague-Dawley strain were purchased from Envigo. Embryos were surgically removed from the mothers and cortices dissected in Hanks Balanced salt solution (Gibco). The meninges were removed, and cells were dissociated using a papain dissociation system (Worthington) before being resuspended in Neurobasal medium A supplemented with antibiotic-antimycotic solution (Gibco), L-glutamine substitute (GlutaMAX™; Gibco) and factor B27 (Gibco). […]\nAfter fixation, cells were permeabilized with 0.2% Triton-X-100 for 15 min, washed three times with PBS and then incubated with blocking solution (1% BSA, 22.52 mg/mL glycine, 0.1% Tween-20 in PBS or 0.4% saponin, 1% BSA, and 5% goat or donkey serum in PBS) for 1 h. […] Following another three washes with PBS, nuclei were counterstained with DAPI (ThermoFisher) and then coverslips were mounted on slides using Dako fluorescence mounting medium (Agilent) and sealed using clear nail varnish.\nConfocal images of primary cortical neurons, iPSC-derived dopaminergic neurons, and LAMP1 staining within the SN were processed using Imaris software (Oxford instruments). […] Mean pixel intensity per GFP^+ cell (for experiments using GFP-tagged peptides) or RFP^+ cell (for experiments using RFP-tagged peptides) was calculated for a-syn or LAMP1 signal using the software’s surfaces module. […]"}}, "data": [{"sequence": "DEEIERQLKALG [PDpep1.3]", "values": [{"measurement": "Effect on neurodegeneration in SN", "setting": "[1]", "value": "neurodegeneration was mitigated"}, {"measurement": "Effect on cathepsin B", "setting": "[2]", "value": "reduced to control levels"}]}]}
